Source: patent publication US9393221B2, “Methods and compounds for reducing intracellular lipid storage” (THE GENERAL HOSPITAL CORPORATION, priority 2011, dated 2016)
Where a name gives a salt, the structure may show the parent alone.

Tested on: ATGL-KO iPSCs
Assay: High throughput iPSC chemical screening, Oil Red O (ORO) lipid accumulation; for Z-score: test concentration or dose not given here
Format: cell-based, mouse
Conditions: not given

SMILES	Z-score
CN1CCc2cccc3c2[C@H]1Cc1ccc(O)c(O)c1-3.CN1CCc2cccc3c2[C@H]1Cc1ccc(O)c(O)c1-3.Cl.Cl.O	−0.2622
O=C(O)C1CCCNC1 (racemic) [(±)-Nipecotic acid]	0.6655
CC(=C(CCO)SSCC1CCCO1)N(C=O)Cc1cnc(C)nc1N (stereo in doubt) [Fursultiamine Hydrochloride]	−0.696
C[C@]12CC[C@@H](O)C[C@H]1CC[C@@H]1[C@@H]2CC[C@]2(C)C(=O)CC[C@@H]12 [3-alpha-Hydroxy-5-beta-androstan-17-one]	−0.187

Same assay, conditions: glycolytic switch compounds

SMILES	Rank in normalized ORO score from screen
CN1CCN(C(c2ccccc2)c2ccc(Cl)cc2)CC1 (centres unmarked) [(1-[(4-Chlorophenyl)phenyl-methyl]-4-methylpiperazine)]	720
CN(C)c1nc(N(C)C)nc(N(C)C)n1 [Altretamine]	814

Same assay, conditions: normalized ORO level vs DMSO-treated cells; compound present during 7 days differentiation, 96-well; negative = decrease in lipid accumulation

SMILES	Z-score
COc1ccc2c(c1)[C@]13CCCC[C@@H]1[C@H](C2)N(C)CC3	−0.8776
COc1cc2c(cc1OC)C(C)NCC2.Cl (centres unmarked)	0.4756
Cc1ccc(Cl)c(Nc2ccccc2C(=O)O)c1Cl	−1.2044
CC(C)NCC(O)c1cc(O)cc(O)c1.CC(C)NCC(O)c1cc(O)cc(O)c1.O=S(=O)(O)O (centres unmarked)	−0.3842
O=C(O)Cc1cc(I)c(Oc2ccc(O)c(I)c2)c(I)c1	−0.9554
CN(N=O)C(=O)N[C@H]1C(O)O[C@H](CO)[C@@H](O)[C@@H]1O (mixture of isomers) [Streptozotocin]	0.0088
Cl.NCC(O)c1ccc(O)cc1 (racemic) [(+,−)-Octopamine hydrochloride]	0.9737
CNCC(O)c1ccc(O)cc1 (racemic) [(+,−)-Synephrine]	−1.0448
CN(Cc1cnc2nc(N)nc(N)c2n1)c1ccc(C(=O)N[C@@H](CCC(=O)O)C(=O)O)cc1 (racemic) [Amethopterin (R,S)]	15.6786
CC(=O)NC(CC(=O)O)C(=O)O (racemic) [Aspartic acid, N-acetyl (R,S)]	0.7559
NCC(CC(=O)O)c1ccc(Cl)cc1 (racemic) [Baclofen (R,S)]	0.07861
O.Oc1cc(O)c2c(c1)OC(c1ccc(O)c(O)c1)C(O)C2 (racemic) [Catechin-(+,−) hydrate]	−0.9777
OCC(O)CN1CCN(c2ccccc2)CC1 (racemic) [Dropropizine (R,S)]	0.6396
Nc1c2c(nc3ccccc13)CCCC2O.O=C(O)/C=C\C(=O)O (racemic) [Hydroxytacrine maleate (R,S)]	−0.525
Nc1c(O)cccc1C(=O)CC(N)C(=O)O (racemic) [Kynurenine, 3-hydroxy (R,S)]	0.1567
COc1ccc(CC2c3cc(OC)c(OC)cc3CCN2C)cc1OC (racemic) [Laudanosine (R,S)]	−0.5493
COCCc1ccc(OCC(O)CNC(C)C)cc1.COCCc1ccc(OCC(O)CNC(C)C)cc1.O=C(O)C(O)C(O)C(=O)O (racemic) [Metoprolol-(+,−) (+)-tartrate salt]	−0.4304
CC(=O)NC1CCSC1=O (racemic) [N-Acetyl-DL-homocysteine Thiolactone]	0.1772
CN1CCC2(C)c3cc(O)ccc3N(C)C12.O=C(O)/C=C/C(=O)O (single isomer, unassigned; (-)) [(−)-Eseroline fumarate salt]	−0.478
CC(C)NCC(O)c1ccc(O)c(O)c1.Cl (single isomer, unassigned; (-)) [(−)-Isoproterenol hydrochloride]	4.267
CC(=O)NC1[C@@H](O)OC(CO)[C@@H](O)[C@H]1O[C@H](C)C(=O)O (stereo in doubt) [Muramic acid, N-acetyl]	1.128
Nc1ccccc1S(N)(=O)=O [2-Aminobenzenesulfonamide]	−1.9389
Clc1cnccn1 [2-Chloropyrazine]	−0.5863
CC(=O)Nc1cc2ccccc2oc1=O [3-Acetamidocoumarin]	0.06786

SMILES	Z-score
CC(=O)c1cc2ccccc2oc1=O [3-Acetylcoumarin]	−0.8473
c1coc(CNc2ncnc3nc[nH]c23)c1 [6-Furfurylaminopurine]	0.2192
CN1C2CC(=O)CC1C(O)C2 (centres unmarked) [6-Hydroxytropinone]	0.54
CN1CCN(C(c2ccccc2)c2ccc(Cl)cc2)CC1 (centres unmarked) [(1-[(4-Chlorophenyl)phenyl-methyl]-4-methylpiperazine)]	0.241
CC(C)NC[C@@H](O)c1ccc(O)c(O)c1.O=C(O)C(O)C(O)C(=O)O [(+)-Isoproterenol (+)-bitartrate salt]	−0.728
CC(C)(C)NC[C@@H](O)COc1cccc2c1CCCC2=O.Cl [(+)-Levobunolol hydrochloride]	−0.1813
CC(C)NC[C@@H](O)COc1ccc(CC(N)=O)cc1 [(R)-(+)-Atenolol]	0.9856
COc1ccc2cc([C@@H](C)C(=O)[O-])ccc2c1.[Na+] [(R)-Naproxen sodium salt]	2.243
CC(C)NC[C@@H](O)COc1cccc2ccccc12.Cl [(R)-Propranolol hydrochloride]	−0.4494
N[C@H]1CONC1=O [(S)-(−)-Cycloserine]	−0.4402
C[C@@H]1CCC[C@H](C)N1.Cl [(cis-) Nanophine]	−1.4074
COc1ccc2c(c1OC)CN1CCc3cc4c(cc3C1C2)OCO4 (centres unmarked) [(d,l)-Tetrahydroberberine]	3.2577
CC(C)(C)NC[C@H](O)COc1cccc2c1CCCC2=O.Cl [(−)-Levobunolol hydrochloride]	−0.5665
COc1ccc(-c2cc(=O)c3c(O)cc(O)cc3o2)cc1 [Acacetin]	0.4211
CCCC(=O)Nc1ccc(OCC(O)CNC(C)C)c(C(C)=O)c1 (centres unmarked) [Acebutolol hydrochloride]	0.4578
O=C(O)COC(=O)Cc1ccccc1Nc1c(Cl)cccc1Cl [Aceclofenac]	−0.5442
COc1ccc2c(c1)c(CC(=O)OCC(=O)O)c(C)n2C(=O)c1ccc(Cl)cc1 [Acemetacin]	−0.9005
CC(=O)CC(c1ccc([N+](=O)[O-])cc1)c1c(O)c2ccccc2oc1=O (centres unmarked) [Acenocoumarol]	−1.4804
CC(=O)Nc1ccc(O)cc1 [Acetaminophen]	−0.6512
CC(=O)Nc1nnc(S(N)(=O)=O)s1 [Acetazolamide]	0.8773
CC(=O)c1ccc(S(=O)(=O)NC(=O)NC2CCCCC2)cc1 [Acetohexamide]	0.3584
CC(=O)c1ccc2c(c1)N(CCCN(C)C)c1ccccc1S2.O=C(O)/C=C\C(=O)O [Acetopromazine maleate salt]	−0.5926
CC(=O)Oc1ccccc1C(=O)Oc1ccccc1C(=O)O [Acetylsalicylsalicylic acid]	−1.3067
CCN1C[C@]2(COC)[C@H](O)C[C@H](OC)[C@@]34[C@@H]5C[C@@]6(O)[C@H](OC(=O)c7ccccc7)[C@@H]5[C@@](OC(C)=O)([C@@H]([C@H](OC)[C@H]23)[C@@H]14)[C@@H](O)[C@@H]6OC [Aconitine]	0.7907

SMILES	Z-score
Nc1nc2c(ncn2COCCO)c(=O)[nH]1 [Acyclovir]	−0.0091
NC12CC3CC(CC(C3)C1)C2.NC12CC3CC(CC(C3)C1)C2.O=C(O)/C=C/C(=O)O [Adamantamine fumarate]	0.2085
CCN(CC)CCOC(=O)C(c1ccccc1)c1ccccc1 [Adiphenine hydrochloride]	0.801
C[C@]12CCC(=O)C=C1CC[C@@H]1[C@@H]2C(=O)C[C@]2(C)C(=O)CC[C@@H]12 [Adrenosterone]	−1.025
COC(=O)C1=CO[C@@H](C)[C@H]2CN3CCc4c([nH]c5ccccc45)[C@@H]3C[C@H]12.Cl [Ajmalicine hydrochloride]	−0.8989
CC[C@H]1[C@@H]2C[C@H]3[C@@H]4N(C)c5ccccc5[C@]45C[C@@H]([C@H]2[C@H]5O)N3[C@@H]1O [Ajmaline]	−0.937
CCCSc1ccc2nc(NC(=O)OC)[nH]c2c1 [Albendazole]	41.6509
CCC(=O)OCC(=O)[C@@]1(OC(=O)CC)[C@H](C)C[C@H]2[C@H]3[C@H]([C@@H](O)C[C@@]21C)[C@@]1(C)C=CC(=O)C=C1C[C@H]3Cl [Alclometasone dipropionate]	0.9375
C=CC[N@@+]12CC[C@@]34c5ccccc5N5/C=C6/[C@H]7C[C@H]8[C@@]9(CC[N@@+]8(CC=C)C/C7=C/CO)c7ccccc7N(/C=C(/[C@@H](C[C@@H]31)/C(=C\CO)C2)[C@H]54)[C@@H]69.[Cl-].[Cl-] [Alcuronium chloride]	0.354
CCCCC(CC)CNC(=N)NC(=N)NCCCCCCNC(=N)NC(=N)NCC(CC)CCCC (centres unmarked) [Alexidine dihydrochloride]	43.2376
CC(=O)OCC(=O)[C@H]1CC[C@H]2[C@@H]3CC[C@H]4C[C@H](O)CC[C@]4(C)[C@H]3C(=O)C[C@]12C [Alfadolone acetate]	−0.4554
COc1cc2nc(N(C)CCCNC(=O)C3CCCO3)nc(N)c2cc1OC (centres unmarked) [Alfuzosin hydrochloride]	0.4534
NC(=O)NC1NC(=O)NC1=O (centres unmarked) [Allantoin]	0.8256
C=CCc1ccccc1OCC(O)CNC(C)C (centres unmarked) [Alprenolol hydrochloride]	0.9239
CCCCC[C@H](O)/C=C/[C@H]1[C@H](O)CC(=O)[C@@H]1CCCCCCC(=O)O [Alprostadil]	−0.9154
C=CCSCC1Nc2cc(Cl)c(S(N)(=O)=O)cc2S(=O)(=O)N1 (centres unmarked) [Althiazide]	0.2816
CN(C)c1nc(N(C)C)nc(N(C)C)n1 [Altretamine]	0.5601
Nc1c(Br)cc(Br)cc1CN[C@H]1CC[C@H](O)CC1 [Ambroxol hydrochloride]	−0.9433
Cc1c(N(C)C)c(=O)n(-c2ccccc2)n1C [Amidopyrine]	0.347
NCC[C@H](O)C(=O)N[C@@H]1C[C@H](N)[C@@H](O[C@H]2O[C@H](CN)[C@@H](O)[C@H](O)[C@H]2O)[C@H](O)[C@H]1O[C@H]1O[C@H](CO)[C@@H](O)[C@H](N)[C@H]1O [Amikacin hydrate]	2.444
N=C(N)NC(=O)c1nc(Cl)c(N)nc1N [Amiloride hydrochloride dihydrate]	1.955
Nc1ccc(C(=O)NCC(=O)O)cc1 [Aminohippuric acid]	−1.1341
Cn1c(=O)c2[nH]cnc2n(C)c1=O [Aminophylline]	−1.0552
